One molecule from patent EP0528583A1, “Isolation and structure of the cell growth inhibitory cycloheptapeptide axinastatin 1” (ARIZONA BOARD OF REGENTS, priority 1991, dated 1993) can be followed below.

SMILES strings stand for the structures. Residues, ends and D or L forms follow the SMILES beside them.

Assay [1] concerns NCI murine P388 lymphocytic leukemia cell line. The experiment in a line: P388 (PS system) lymphocytic leukemia cell growth inhibition in culture, NCI protocol. It counts as cell-based. The following applies: concentration required to inhibit growth of tumor cells in culture by 50 percent. From the text: (§1) The isolation and purification methods chosen can be monitored at each step by performing in-vitro and/or in-vivo antitumor tests as described by R. I. Geran, N.H. Greenberg, M. M. MacDonald, A.M. Schumacher and B. S. Abbot in Cancer Chemotherapy Rep., Part 3, Vol 3: 1-103 (1972); and by Schmidt, J. M.; Pettit, G. R. in Experientia 1978, 34: 659-660. Such tests include the determination of the concentration of active material required to inhibit the growth of tumor cells in culture, (e.g. the concentration required to inhibit growth by 50 percent or the E.D.₅₀) and of the dose of active material required to prolong the life of mice bearing transplanted tumors ("life extension").

The test system of assay [2] is P388 lymphocytic leukemia. The experiment in a line: In vivo P388 (PS) lymphocytic leukemia life extension, NCI protocol. The note with it: in vivo P388 lymphocytic leukemia system; dose not given. More on the design: species or system mice.
Source text: as §1

On to `CC(C)[C@@H]1NC(=O)[C@H](Cc2ccccc2)NC(=O)[C@@H]2CCCN2C(=O)[C@H](CC(N)=O)NC(=O)[C@H](C(C)C)NC(=O)[C@@H]2CCCN2C(=O)[C@H](C(C)C)NC1=O` [axinastatin 1, cyclo (Asn-Pro-Phe-Val-Val-Pro-Val)] (cyclo(FVVPVNP)), for which the “PS ED₅₀” value in assay [1] came to 0.21 µg/mL. In assay [2], the life extension is recorded as 20%.
